The assay has as its target T1, FAAH (Rattus norvegicus, UniProt P97612).
T1 construct: For the assay of FAAH activity in rat brain membrane (RBM) homogenates; tissue Charles River (animals); host or cells: rat whole brain, membrane fraction
T1 sequence (P97612 1-579): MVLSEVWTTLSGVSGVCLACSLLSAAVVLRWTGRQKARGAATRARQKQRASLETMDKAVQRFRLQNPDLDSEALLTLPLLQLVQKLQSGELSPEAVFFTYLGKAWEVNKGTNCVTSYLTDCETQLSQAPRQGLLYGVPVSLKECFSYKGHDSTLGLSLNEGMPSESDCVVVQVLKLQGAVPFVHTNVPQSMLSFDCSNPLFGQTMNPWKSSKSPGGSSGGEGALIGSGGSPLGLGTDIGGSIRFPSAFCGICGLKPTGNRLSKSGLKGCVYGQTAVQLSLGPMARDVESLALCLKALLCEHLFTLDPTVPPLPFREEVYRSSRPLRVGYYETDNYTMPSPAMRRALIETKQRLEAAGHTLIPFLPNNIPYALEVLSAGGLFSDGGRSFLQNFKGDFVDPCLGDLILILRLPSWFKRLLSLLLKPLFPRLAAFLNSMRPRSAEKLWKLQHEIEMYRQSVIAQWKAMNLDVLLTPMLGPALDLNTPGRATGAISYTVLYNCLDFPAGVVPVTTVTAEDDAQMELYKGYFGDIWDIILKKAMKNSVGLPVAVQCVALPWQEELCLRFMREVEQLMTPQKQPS
The assay is described as follows: FAAH inhibition, rat brain membrane homogenate assay. In kind it is biochemical. As to conditions: rat brain homogenate; average activity; read-out: Rat Brain Extract FAAH IC50. The method, then:
Adult rats (Charles River CD strain, female, 200 g) were anaesthetized with isofluorane and rapidly decapitated. Each brain was quickly removed and chilled in tubes (3 brains per tube) on ice. About 25 mL of “homogenization buffer” (20 mM HEPES buffer, pH 7.0, with 1 mM MgCl2) was added to 15 to 20 g of brain. The brains were homogenized on ice for 1 minute using an Omni GLH homogenizer (Omni International, Marietta, Ga.). The homogenates were then transferred to three centrifuge tubes and centrifuged at 36,500 g for 20 minutes at 4° C. The supernatant was discarded and each pellet was re-suspended in 25 mL homogenization buffer. The re-suspended material was again centrifuged (36,500 g, 20 minutes at 4° C.). Pellets were combined by re-suspension in 10 mL of homogenization buffer and incubated in a 37° C. water bath for 15 minutes. The tubes were then placed on ice for 5 minutes followed by centrifugation at 36,500 g for 20 minutes at 4° C. The supernatant was discarded and the membrane pellets were then re-suspended in 40 mL of “re-suspension buffer” (50 mM Tris-HCl buffer, pH 7.4, containing 1 mM EDTA and 3 mM MgCl2). A Bradford Protein assay was performed to determine protein concentration. The protein was aliquotted into screw cap Cryo tubes each containing −400 μL, flash-frozen in liquid nitrogen and stored at −80° C. until used for the assay. A similar protocol was used to obtain brain membrane homogenates from mice
FAAH activity was assayed in the respective homogenates described herein (Rat brain, Mouse brain or Human brain) with certain of the exemplary compounds described above using a modification of the method of Omeir et al. (1995 Life Sci. 56:1999) and Fowler et al. (1997 J. Pharmacol. Exp. Ther. 283:729). For the assay of FAAH activity in rat brain membrane (RBM) homogenates, RBM homogenates (7 μg protein in 20 μL final volume of 10 mM Tris pH 6.5) were mixed with 180 μL of a mixture of the following: […] unlabelled anandamide (AEA), 0.03 Ci radio labeled anandamide [ethanolamine 1-^3H](40-60 Ci/mmol; product number ART-626, American Radiolabelled Chemicals, St. Louis, Mo.), 1 mg/mL Bovine Serum Albumin (fatty acid-free BSA, electrophoresis grade, Sigma, St. Louis, Mo.), 10 mM Tris-HCl (pH 6.5), and 1 mM EDTA in the presence and absence of test compounds (vehicle was DMSO at a final concentration of 1%) and incubated for 10 minutes at 37° C. Samples were placed on ice to terminate the reactions.
The ^3H-ethanolamine product and un-reacted ^3H-anandamide substrate were then separated by either: (1) using chloroform/methanol extraction or (2) passing the reaction mixture through a glass fiber filter containing activated charcoal. Samples were extracted with chloroform/methanol by adding 0.4 mL of chloroform/methanol (1:1 v/v), vigorously mixing the samples, and separating the aqueous and organic phases by centrifugation. Radioactivity (corresponding to FAAH-catalyzed breakdown of ^3H-anandamide) found in aliquots (0.2 mL) of the aqueous phase was determined by liquid scintillation counting with quench correction. IC50 values were determined as described by Jonsson et al. (2001 Br. J Pharmacol. 133:1263). Alternatively, reactions were purified using a modification of the solid-phase extraction method described by Wilson et al (2003 Anal. Biochem. 318: 270). This method was modified as follows: after reactions were incubated at 37° C. for 10 minutes and chilled on ice, the reaction mixtures were acidified by adding 10 μL of sodium phosphate solution[0.5M (pH 2.0)]. Next, 90 μL aliquots of the acidified reaction mixtures were applied to activated charcoal (that had been previously washed with methanol as described by Wilson et al. (supra)) containing 80 μL of water on top of a glass fiber filter, centrifuged, and the radioactivity in the eluate was counted as described previously by Wilson et al. (supra). […]

Structures are written as SMILES.

For `COc1cc(NC(=O)C(=O)c2c(C)n(Cc3ccc(Cl)cn3)c3ccc([N+](=O)[O-])cc23)ccn1` [Compound 62, 2-(1-((5-chloropyridin-2-yl)methyl)-2-methyl-5-nitro-1H-indol-3-yl)-N-(2-methoxypyridin-4-yl)-2-oxoacetamide], the half-maximal inhibitory concentration (IC50) (in general, the concentration that inhibits the measured activity by half) was under 100 nM.

`COc1cc(NC(=O)C(=O)c2c(C)n(Cc3ccc(Cl)cn3)c3ccccc23)ccn1` [Compound 68, 2-(1-((5-chloropyridin-2-yl)methyl)-2-methyl-1H-indol-3-yl)-N-(2-methoxypyridin-4-yl)-2-oxoacetamide]: the IC50 was under 100 nM.

In the case of `COc1ccc(Cn2c(C)c(C(=O)C(=O)Nc3ccnc(OC)c3)c3cc(OC)c(C)cc32)nc1` [Compound 96, 2-(5-methoxy-1-((5-methoxypyridin-2-yl)methyl)-2,6-dimethyl-1H-indol-3-yl)-N-(2-methoxypyridin-4-yl)-2-oxoacetamide], the concentration for half-maximal inhibition (IC50) is under 100 nM.

For `COc1cc(NC(=O)C(=O)c2c(C)n(Cc3ncc(Cl)cc3F)c3cc(Cl)c(OC)cc23)ccn1` [Compound 97, 2-(6-chloro-1-((5-chloro-3-fluoropyridin-2-yl)methyl)-5-methoxy-2-methyl-1H-indol-3-yl)-N-(2-methoxypyridin-4-yl)-2-oxoacetamide], the IC50 is under 100 nM.

Regarding `COc1ccc2c(c1)c(C(=O)C(=O)Nc1ccnc(OC)c1)c(C)n2Cc1ccccn1` [Compound 77, 2-(5-methoxy-2-methyl-1-(pyridin-2-ylmethyl)-1H-indol-3-yl)-N-(2-methoxypyridin-4-yl)-2-oxoacetamide], the IC50 was under 100 nM.

In the case of `COc1cc(NC(=O)C(=O)c2c(C)n(Cc3ccc(Cl)cc3)c3c(OC)cccc23)ccn1` [Compound 51, 2-(1-(4-chlorobenzyl)-7-methoxy-2-methyl-1H-indol-3-yl)-N-(2-methoxypyridin-4-yl)-2-oxoacetamide], the half-maximal inhibitory concentration (IC50) is 1000 to 10000 nM.

Turning to `COc1ccc(Cn2c(C)c(C(=O)C(=O)Nc3ccnc(OC)c3)c3cc(OC)c(F)cc32)nc1` [Compound 32, 2-(6-fluoro-5-methoxy-1-((5-methoxypyridin-2-yl)methyl)-2-methyl-1H-indol-3-yl)-N-(2-methoxypyridin-4-yl)-2-oxoacetamide], the concentration for half-maximal inhibition (IC50) is under 100 nM.

Turning to `COc1cc(NC(=O)C(=O)c2c(C)n(Cc3ccc(Cl)cc3)c3ccc(OC)nc23)ccn1` [Compound 36, 2-(1-(4-chlorobenzyl)-5-methoxy-2-methyl-1H-pyrrolo[3,2-b]pyridin-3-yl)-N-(2-methoxypyridin-4-yl)-2-oxoacetamide], the 50% inhibitory concentration (IC50) is under 100 nM.

In the case of `CCN(CC)c1ccc2c(c1)c(C(=O)C(=O)Nc1ccnc(OC)c1)c(C)n2Cc1ccc(Cl)cc1` [Compound 24, 2-(1-(4-chlorobenzyl)-5-(diethylamino)-2-methyl-1H-indol-3-yl)-N-(2-methoxypyridin-4-yl)-2-oxoacetamide], the IC50 lay within 100 to 1000 nM.

With `COc1cc(NC(=O)C(=O)c2c(C)n(Cc3ncc(Cl)cc3Cl)c3ccc(C)cc23)ccn1` [Compound 30, 2-(1-((3,5-dichloropyridin-2-yl)methyl)-2,5-dimethyl-1H-indol-3-yl)-N-(2-methoxypyridin-4-yl)-2-oxoacetamide], the half-maximal inhibitory concentration (IC50) was under 100 nM.

On to `Cc1c(C(=O)C(=O)Nc2cccc(Cl)c2)c2cc(O)ccc2n1Cc1ccc(Cl)cc1` [Compound 71, 2-(1-(4-chlorobenzyl)-5-hydroxy-2-methyl-1H-indol-3-yl)-N-(3-chlorophenyl)-2-oxoacetamide], for which the 50% inhibitory concentration (IC50) lay within 100 to 1000 nM.

As to `COc1cc(NC(=O)C(=O)c2c(C)n(Cc3ccc(Cl)cc3)c3ccc(C(C)=O)cc23)ccn1` [Compound 5, 2-(5-acetyl-1-(4-chlorobenzyl)-2-methyl-1H-indol-3-yl)-N-(2-methoxypyridin-4-yl)-2-oxoacetamide], the concentration for half-maximal inhibition (IC50) was under 100 nM.

For `COc1cc(NC(=O)C(=O)c2c(C)n(Cc3ncc(Cl)cc3Cl)c3cc(Cl)c(OC)cc23)ccn1` [Compound 70, 2-(6-chloro-1-((3,5-dichloropyridin-2-yl)methyl)-5-methoxy-2-methyl-1H-indol-3-yl)-N-(2-methoxypyridin-4-yl)-2-oxoacetamide], the IC50 is under 100 nM.

Take `COc1ccc2c(c1)c(C(=O)C(=O)Nc1ccnc(OC)c1Cl)c(C)n2Cc1ccc(Cl)cc1` [Compound 52, N-(3-chloro-2-methoxypyridin-4-yl)-2-(1-(4-chlorobenzyl)-5-methoxy-2-methyl-1H-indol-3-yl)-2-oxoacetamide]: the IC50 was over 10000 nM.

On to `COc1cc(NC(=O)C(=O)c2c(C)n(Cc3ccc(Cl)cc3)c3ccc(Br)cc23)ccn1` [Compound 18, 2-(5-bromo-1-(4-chlorobenzyl)-2-methyl-1H-indol-3-yl)-N-(2-methoxypyridin-4-yl)-2-oxoacetamide], for which the half-inhibitory concentration (IC50) is under 100 nM.

`COc1cc(NC(=O)C(=O)c2c(C)n(Cc3ccc(Cl)cc3)c3ccc(N)c(Cl)c23)ccn1` [Compound 73, 2-(5-amino-4-chloro-1-(4-chlorobenzyl)-2-methyl-1H-indol-3-yl)-N-(2-methoxypyridin-4-yl)-2-oxoacetamide]: the IC50 fell in the range of 100 to 1000 nM.

For `COc1cc(NC(=O)C(=O)c2c(C)n(Cc3ccc(Cl)cc3)c3ccc(N)cc23)ccn1` [Compound 20, 2-(5-amino-1-(4-chlorobenzyl)-2-methyl-1H-indol-3-yl)-N-(2-methoxypyridin-4-yl)-2-oxoacetamide], the IC50 was under 100 nM.

Regarding `COc1cc(NC(=O)C(=O)c2c(C)n(Cc3ccc(Cl)cc3)c3ccc(COC(C)=O)cc23)ccn1` [Compound 10, (1-(4-chlorobenzyl)-3-(2-(2-methoxypyridin-4-ylamino)-2-oxoacetyl)-2-methyl-1H-indol-5-yl)methyl acetate], the 50% inhibitory concentration (IC50) was under 100 nM.

As to `COc1cc(NC(=O)C(=O)c2c(C)n(Cc3ccc(Cl)cn3)c3cc(Cl)c(OC)cc23)ccn1` [Compound 60, 2-(6-chloro-1-((5-chloropyridin-2-yl)methyl)-5-methoxy-2-methyl-1H-indol-3-yl)-N-(2-methoxypyridin-4-yl)-2-oxoacetamide], the IC50 is under 100 nM.

For `COc1cc(NC(=O)C(=O)c2c(C)n(Cc3ccc(Cl)cc3)c3ccc(C(=O)N(C)C)cc23)ccn1` [Compound 6, 1-(4-chlorobenzyl)-3-(2-(2-methoxypyridin-4-ylamino)-2-oxoacetyl)-N,N,2-trimethyl-1H-indole-5-carboxamide], the IC50 lay in the range of 100 to 1000 nM.

On to `COc1cc(NC(=O)C(=O)c2c(C)n(Cc3ccc(F)cc3F)c3cc(F)c(OC)cc23)ccn1` [Compound 14, 2-(1-(2,4-difluorobenzyl)-6-fluoro-5-methoxy-2-methyl-1H-indol-3-yl)-N-(2-methoxypyridin-4-yl)-2-oxoacetamide], for which the half-inhibitory concentration (IC50) is under 100 nM.

Values taken from patent US20150175599A1, “FAAH Inhibitors” (Ironwood Pharmaceuticals, Inc., priority 2010, published 2015).
